Measured values as given in patent US20220339143A1, “TAK-925 FOR USE IN TREATING NARCOLEPSY” (Takeda Pharmaceutical Company Limited, priority 2019, published 2022).

Columns and labels:
Assay type in all cases: in vivo, human
patients with NT1 [1] = assay: Sleep latency in MWT, multiple dose (Cohorts B1, B2)
Method: (§1) The purpose of the study was to evaluate the safety, tolerability, pharmacokinetics and pharmacodynamics of Compound A after multiple IV administration in patients with NT1. NT1 patients were evaluated in Cohort B1 and B2 (Table 19). Compound A or placebo were administered via IV infusion over 9 hours once daily for 7 days. A total of 13 patients with NT1 were treated with Compound A or placebo (4, 4, and 5 subjects in the placebo, Compound A 11 mg, and Compound A 44 mg groups, respectively). In this part, potential efficacy of Compound A was evaluated with MWT, ESS, KSS, night-time PSG (NPSG), cataplexy frequency assessment, and PGI-C as an exploratory PD assessment.
An overview of study schedule and PD testing in NT1 Patients is illustrated in FIG. 11. After screening, patients eligible for these parts had to discontinue any medication for narcolepsy including medications used for EDS or cataplexy. The medications had to be stopped for a minimum of 7 days or at least 5 half-lives of each medication, whichever was longer, before the first day of dosing (Day 1). As for a subject having possibility of getting injured due to severe cataplexy, the subject might have been confined to the site before Day −2 at a discretion of the investigator. In all cohorts of these parts, subjects underwent NPSG on Day −2 and baseline MWT sessions 4 times on Day −1 (at around 10:00, 12:00, 14:00, and 16:00). Study drug dosing via IV infusion was started at around 08:00. MWT was conducted on Day 1 at around 10:00, 12:00, 14:00, and 16:00. Subjects were allowed to take a nap on the days with no MWT assessment. At night of Day 6, the subjects underwent NPSG once again to evaluate the effect of multiple daytime dosing on night-time sleep structure. On Day 7, the subjects underwent MWT at the same hours as on Day −1. Cataplexy was to be evaluated by using the self-recorded sleep diary. The subjects were discharged from the study site on Day 8.
The MWT is a validated objective measure that evaluates a person's ability to remain awake under soporific conditions for a defined period of time. As there is no biological measure of wakefulness, this was measured indirectly by the inability or delayed tendency to fall asleep. This tendency to fall asleep was measured via EEG-derived sleep latency in MWT.
On Day −1, Day 1 and Day 7, 40-minute session (1 session) of MWTs was performed 4 times (approximately at 10:00, 12:00, 14:00, and 16:00) per day. Sleep latency of each session was recorded. Subjects were required to stay awake during an interval between sessions.

patients with NT1 [2] = assay: Epworth Sleepiness Scale (ESS), multiple dose (Cohorts B1, B2); conditions: for ESS Change from Baseline, Median / ESS Observed Value, Median: Day 7; for ESS Observed Value, Mean: Day 7 (placebo 16.3); for ESS Change from Baseline, Mean: Day 7 (placebo −0.3)
Method: as §1

[3] = test system: healthy adults, healthy elderly subjects; assay: Safety/tolerability of a single dose given as 9 hour continuous IV infusion in healthy adults and healthy elderly subjects
Method: This study investigates (i) the safety and tolerability of Compound A (methyl (2R,3S)-3-((methylsulfonyl)amino)-2-(((cis-4-phenylcyclohexyl)oxy)methyl)piperidine-1-carboxylate) when a single dose given as a 9 hour continuous IV infusion is administered to healthy adults, healthy elderly subjects and patients with narcolepsy type 1 (NT1); (ii) the pharmacokinetics of Compound A when a single dose given as a 9 hour continuous IV infusion is administered to healthy adults, healthy elderly subjects and patients with narcolepsy type 1; and (iii) the pharmacodynamics (PD) effects of Compound A, primarily by evaluation of the sleep latency on MWT when a single dose given as a 9 hour continuous IV infusion is administered to patients with narcolepsy type 1.
Safety and tolerability: adverse events, vital signs, 12-lead ECG and clinical laboratory tests (hematological tests, blood biochemical tests and urinalysis)
To investigate the safety of Compound A, the treatment-emergent adverse events (TEAEs) for healthy subjects and subjects with narcolepsy type 1 (NT1 patients) treated with Compound A were evaluated. A summary of the TEAEs for healthy subjects from cohorts 1 and 2 is shown in FIG. 3, for healthy subjects from cohorts S1, S2, 3, and 4 is shown in FIG. 4, and for NT1 patients is shown in FIG. 5.

[4] = test system: patients with narcolepsy type 1 (NT1); assay: Number of cataplexy episodes (daily diary), single dose (Cohorts 5, 6, 7); conditions: for Number of Events of Cataplexy per Week in one particular patient: cohort 7
Excerpt: Assessment of cataplexy and other sleep manifestations using a daily diary to collect episodes of cataplexy and sleep symptoms associated with NT1.

COC(=O)N1CCC[C@H](NS(C)(=O)=O)[C@@H]1CO[C@H]1CC[C@@H](c2ccccc2)CC1 [Compound A, methyl (2R,3S)-3-((methylsulfonyl)amino)-2-(((cis-4-phenylcyclohexyl)oxy)methyl)piperidine-1-carboxylate]
mean sleep latency in MWT (patients with NT1 [1]; 11 mg, Day 1 (placebo 1.31)): 37.16 min | mean change from baseline in average sleep latency in MWT (patients with NT1 [1]; 11 mg, Day 1 (placebo −0.66)): 35.13 min | mean sleep latency in MWT (patients with NT1 [1]; 11 mg, Day 7 (placebo 1.59)): 23.03 min | mean change from baseline in average sleep latency in MWT (patients with NT1 [1]; 11 mg, Day 7 (placebo −0.38)): 21.00 min | maximum sleep latency achieved in MWT (patients with NT1 [1]; 11 mg, at 4 hours on Day 1): 40 min | mean sleep latency in MWT (patients with NT1 [1]; 44 mg, Day 1 (placebo 1.31)): 40.00 min | mean change from baseline in average sleep latency in MWT (patients with NT1 [1]; 44 mg, Day 1 (placebo −0.66)): 34.19 min | mean sleep latency in MWT (patients with NT1 [1]; 44 mg, Day 7 (placebo 1.59)): 40.00 min | mean change from baseline in average sleep latency in MWT (patients with NT1 [1]; 44 mg, Day 7 (placebo −0.38)): 34.78 min | maximum sleep latency achieved in MWT (patients with NT1 [1]; 44 mg, all time points on both Day 1 and Day 7): 40 min | ESS Change from Baseline, Median (patients with NT1 [2]; 11 mg): −9.5 | ESS Observed Value, Median (patients with NT1 [2]; 11 mg): 8.5 | ESS Observed Value, Mean (patients with NT1 [2]; 11 mg): 9.8 | ESS Change from Baseline, Mean (patients with NT1 [2]; 11 mg): −8.3 | ESS Change from Baseline, Median (patients with NT1 [2]; 44 mg): −18.0 | ESS Observed Value, Median (patients with NT1 [2]; 44 mg): 0.0 | ESS Observed Value, Mean (patients with NT1 [2]; 44 mg): 0.0 | ESS Change from Baseline, Mean (patients with NT1 [2]; 44 mg): −18.6 | BP and pulse rate increases vs Compound A concentration ([3]; human, in vivo): Trend for the observed BP and pulse rate increases in healthy subjects and Compound A concentration was observed | commonly observed AEs ([3]; human, in vivo, iv): BP increased and heart rate increased | adverse events (AEs), severity and seriousness ([3]; single dose, 9 hour IV infusion, Compound A groups (healthy subjects and NT1 patients)): all of the AEs were mild (except 1 moderate influenza) and no serious AEs were observed | Subjects without any Events (cataplexy) ([4]; 5 mg (N = 6)): 3 (50.0) N (%) | Number of Times of a Cataplexy Episode, Mean (SD) ([4]; 5 mg, After End of Infusion): 10.2 (23.45) | Number of Times of a Cataplexy Episode, Median ([4]; 5 mg, After End of Infusion): 0.5 | Number of Times of a Cataplexy Episode, Mean (SD) ([4]; 5 mg, During Infusion): 0.0 (0.00) | Number of Times of a Cataplexy Episode, Median ([4]; 5 mg, During Infusion): 0.0 | Subjects without any Events (cataplexy) ([4]; 11.2 mg (N = 4)): 3 (75.0) N (%) | Number of Times of a Cataplexy Episode, Mean (SD) ([4]; 11.2 mg, After End of Infusion): 0.0 (0.00) | Number of Times of a Cataplexy Episode, Median ([4]; 11.2 mg, After End of Infusion): 0.0 | Number of Times of a Cataplexy Episode, Mean (SD) ([4]; 11.2 mg, During Infusion): 0.8 (1.50) | Number of Times of a Cataplexy Episode, Median ([4]; 11.2 mg, During Infusion): 0.0 | Subjects without any Events (cataplexy) ([4]; 44.8 mg (N = 4)): 3 (75.0) N (%) | Number of Times of a Cataplexy Episode, Mean (SD) ([4]; 44.8 mg, After End of Infusion): 0.8 (1.50) | Number of Times of a Cataplexy Episode, Median ([4]; 44.8 mg, After End of Infusion): 0.0 | Number of Times of a Cataplexy Episode, Mean (SD) ([4]; 44.8 mg, During Infusion): 0.0 (0.00) | Number of Times of a Cataplexy Episode, Median ([4]; 44.8 mg, During Infusion): 0.0 | Number of Events of Cataplexy per Week in one particular patient ([4]; During Cmpd A infusion (baseline 808, during placebo infusion 83)): 0 | Number of Events of Cataplexy per Week in one particular patient ([4]; Post Cmpd A infusion): 58 | frequency of cataplexy compared to baseline frequency in one patient of cohort 7 ([4]; during the infusion of Compound A): remarkably improved
